{
  "source": "patent US11793774B2",
  "about": "“Chiral beta-hydroxyethylamines and their use in the treatment of hyperglycemia” (ATROGI AB, priority 2017, dated 2023)",
  "key": {"L6-myotubes": {"test_system": "L6-myotubes", "test": "Glucose uptake (3H-2-deoxy-glucose) in differentiated L6-myotubes", "assay_type": "cell-based", "conditions": "agonist final concentration 1×10^−5, 3H-2-deoxy-glucose uptake, relative to isoproterenol", "method": "L6-myoblasts were grown in Dulbecco's Modified Eagle's Medium (DMEM) containing 4.5 g/l glucose supplemented with 10% fetal bovine serum, 2 mM L-Glutamine, 50 U/ml penicillin, 50 μg/ml streptomycin and 10 mM HEPES. Cells were plated at 1×10^5 cells per ml in 24-well plates. After reaching 90% confluence the cells were grown in medium containing 2% FBS for 7 days where upon cells differentiated into myotubes. Differentiated L6-myotubes were serum-starved over night in medium containing 0.5% fatty-acid free BSA and stimulated with agonist, final concentration 1×10^−5. After 1 h 40 min cells were washed with warm, glucose free medium or PBS and another portion of agonist was added to glucose free medium. After 20 min the cells were exposed to 50 nM ^3H-2-deoxy-glucose for another 10 min before washed in ice cold glucose free medium or PBS and lysed in 0.2 M NaOH for 1 h in 60° C."}, "[1]": {"test_system": "Intracellular cAMP levels", "test": "Measurement of intracellular cAMP levels in differentiated cells (alpha screen cAMP kit)", "assay_type": "cell-based", "conditions": "agonist final concentration 1×10^−5, 15 min, 1 mM IBMX, relative to isoproterenol", "method": "L6-myoblasts were grown in Dulbecco's Modified Eagle's Medium (DMEM) containing 4.5 g/l glucose supplemented with 10% fetal bovine serum, 2 mM L-Glutamine, 50 U/ml penicillin, 50 μg/ml streptomycin and 10 mM HEPES. Cells were plated at 1×10^5 cells per ml in 24-well plates. After reaching 90% confluence the cells were grown in medium containing 2% FBS for 7 days where upon cells differentiated into myotubes.\nDifferentiated cells were serum-starved over night and stimulated with agonist, final concentration 1×10^−5, for 15 min in stimulation buffer (HBSS supplemented with 1% BSA, 5 mM HEPES and 1 mM IBMX, pH 7.4) The medium was then aspirated and to end the reaction 100 μL of 95% EtOH was added to each well of a 24-well plate and cells were kept in −20° C. over night. The EtOH was let to evaporate and 500 μL of lysis buffer (1% BSA, 5 mM HEPES and 0.3% Tween-20, pH 7.4) was added to each well before put in −80° C. for 30 min and then kept in −20° C. Intracellular cAMP levels were detected using an alpha screen cAMP kit (6760635D from Perkin Elmer). The activity for each compound is compared to that of isoproterenol."}},
  "data": [
    {"smiles": "CCC[C@@H](C)NC[C@H](O)c1ccc(O)cc1", "note": "[Example 2, 4-((R)-1-Hydroxy-2-(((R)-pentan-2-yl)amino)ethyl)phenol Hemisulphate]", "values": [
      {"measurement": "Biological example 1: glucose uptake activity compared to that of isoproterenol", "setting": "L6-myotubes", "value": "++ (between 75 and 50%)"},
      {"measurement": "Biological example 2: intracellular cAMP activity compared to that of isoproterenol", "setting": "[1]", "value": "+ (between 50 and 25%)"}
    ]},
    {"smiles": "CCC[C@@H](C)NC[C@H](O)c1cccc(O)c1", "note": "[Example 4, 3-((R)-1-Hydroxy-2-(((R)-pentan-2-yl)amino)ethyl)phenol Hemisulphate]", "values": [
      {"measurement": "Biological example 1: glucose uptake activity compared to that of isoproterenol", "setting": "L6-myotubes", "value": "+++ (activity of more than 75% of that of isoproterenol)"},
      {"measurement": "Biological example 2: intracellular cAMP activity compared to that of isoproterenol", "setting": "[1]", "value": "++ (between 75 and 50%)"}
    ]},
    {"smiles": "CCC[C@@H](C)NC[C@H](O)c1ccc(F)cc1", "note": "[Example 5, (R)-1-(4-Fluorophenyl)-2-(((R)-pentan-2-yl)amino)ethan-1-ol]", "values": [
      {"measurement": "Biological example 1: glucose uptake activity compared to that of isoproterenol", "setting": "L6-myotubes", "value": "++ (between 75 and 50%)"},
      {"measurement": "Biological example 2: intracellular cAMP activity compared to that of isoproterenol", "setting": "[1]", "value": "− (less than 25%)"}
    ]},
    {"smiles": "CCC[C@@H](C)NC[C@H](O)c1cccc(F)c1", "note": "[Example 6, (R)-1-(3-fluorophenyl)-2-(((R)-pentan-2-yl)amino)ethan-1-ol]", "values": [
      {"measurement": "Biological example 1: glucose uptake activity compared to that of isoproterenol", "setting": "L6-myotubes", "value": "++ (between 75 and 50%)"},
      {"measurement": "Biological example 2: intracellular cAMP activity compared to that of isoproterenol", "setting": "[1]", "value": "− (less than 25%)"}
    ]}
  ]
}
